Series [1] concerns Phosphorylated tau aggregates. Briefly: Tau immunohistochemistry. Also on record: key to Phosphorylated tau aggregates: − = not present; + = present. The conditions noted are these: for Phosphorylated tau aggregates: SG-fed. It counts as in vivo, mouse. How it is done:
Slide-mounted lumbar and thoracic spinal cord and brain sections were first rinsed for 45 minutes in 3 changes of PBS then quenched in 3% H2O2 in PBST (PBS+0.5% Triton X-100) for 10 minutes. The slides were rinsed for 4 minutes in 2 changes of PBST. The MOM mouse Ig blocking reagent was prepared as per the manufacturer's instructions. Two drops of mouse Ig stock solution was added to 2.5 mL of PBS. The sections were incubated with this solution for 1 hour at RT. Following this step, sections were rinsed for 4 minutes in 2 changes of PBST and incubated (5 minutes) with the MOM diluent solution prepared by adding 600 V1 of MOM protein concentrate to 7.5 mL of PBS. The diluent was tipped off the slides and replaced by a solution comprised of primary phospho-Tau antibody diluted at 1:100 in the diluent solution prepared in the same manner as discussed above. The sections were incubated for 60 minutes at RT. Subsequently, sections were rinsed for 4 minutes in 2 changes of PBST and incubated for 10 minutes in the MOM biotinylated anti-mouse IgG reagent (10 V1 of MOM biotinylated anti-mouse IgG diluted in 2.5 mL of the MOM diluents). The sections were then rinsed in PBST and incubated (1 hour at RT) with the secondary antibody prepared by combining one drop of secondary antibody (biotinylated goat-anti-rabbit IgG) from the Vectastain ABC Elite kit (Vector Laboratories, Burlingame, Calif., USA) was combined with 3 drops of serum stock to 10 mL of PBST. At 30 minutes after start of slide incubation with the secondary antibody, an immunoperoxidase solution was prepared by adding 2 drops of reagent A and 2 drops of reagent B (Vectastain Elite ABC kit, Vector Laboratories, Burlingame, Calif., USA) to 2.5 mL of PBST. After one hour incubation of the slides with the secondary antibody solution, the slides were rinsed for 4 minutes in two changes of PBST and incubated for 30 minutes in the working immunoperoxidase solution. Next, the sections were rinsed for 4 minutes in 2 changes of PBST. During the rinses, the DAB liquid substrate was prepared for the next step. As per manufacturer's instructions, 2 drops of buffer stock solution, 5 mL of ddH2O, 4 drops of DAB stock solution, and 2 drops of hydrogen peroxide solution were combined. The slides were incubated for 3 minutes at RT with this DAB solution and monitored for color development. The sections were rinsed for 5 minutes in ddH2O to stop the reaction and rid slides of DAB substrate. A methyl green nuclear counterstain was used to elucidate nuclei and motor neuron somata. The 0.5% methyl green counterstain was prepared in the following manner: First, the sodium acetate buffer was prepared with 1.36 g of sodium acetate trihydrate to 100 mL of distilled water adjusted to pH 4.2 using glacial acetic acid. For every 100 mL of buffer, 0.5 g of methyl green (ethyl violet, Sigma-Aldrich, Oakville, ON, Canada) was added to make a 0.5% methyl green solution. Slide-mounted sections were stained in the above methyl green solution for 5 minutes at RT. Sections were rinsed in distilled water, until the water became clear. […]
The numbers of immunoreactive somata or inclusions were counted across the ventral horn of the spinal cord, across brain hemispheres, or per dorsal or ventral root with the 40× objective lens in a 600 μm/600 μm area within region perimeters defined by a mouse brain atlas (2001). […]

In a further series the test system is male CD-1 mice. Description: Gait analysis (Digigait), SG-fed mice. It counts as in vivo, mouse. The following applies: SG-fed vs control. An excerpt: Five-month old male CD-1 mice (30.1-35.7 g, 7.5 cm-8.8 cm) were purchased from Charles River (Wilmington, Mass.). Adult mice were chosen to mimic the mean age of onset of ALS-PDC (Kurland, L. T. (1988a) Trends Neurosci. 11, 51-4; Kurland, L. T., et al. (1994) Amyotrophic lateral sclerosis-parkinsonism-dementia complex on Guam: epidemiologic and etiological perspectives. 109-131). Thirty mice for the SG study were randomly divided into 2 groups (14 control and 16 experimental animals). All animals were housed singly in a virus-free barrier facility in a room maintained at 22° C. under a 12 hour light/dark cycle. The mice were provided ad libitum access to food and water.
The synthetic SG was mixed with finely ground Purina Chow mouse pellets (Mouse Diet™, Purina) to create the experimental pellets with a SG content of 1000 μg per pellet. Dry materials were blended with a sterile silicon spatula. For every 5 g of standard feed, 2.5 mL of doubly-distilled water (dd)H2O was added and the dough was kneaded and round up into pellets. A single sterol glucoside containing pellet was placed in the feeding tray each morning before the addition of regular mouse chow (ad libitum). All experimental pellets were entirely consumed by the mice each day. Control mice were fed standard mouse chow pellets of identical weight with no additives. SG feeding was conducted daily for 15 weeks and mice were behaviorally monitored until sacrifice at 35 weeks (time point 1) or 52 weeks (time point 2).
Gait analysis: In order to examine spatial and temporal indices of front and hind limb stepping patterns during forward locomotion, mice were required to run on a colorless (PVC and polycarbonate), straight, level, walled motorized belt (Digigait™, treadmill motor: DC, HP; torque 451b-in, Mouse Specifics, Inc., Boston, Mass., USA) set at 30 rpm with a no-flicker light source (90-250 VAC; 25 kHZ, Mouse Specifics, Inc., Boston, Mass., USA) and camera mounted ventrally (relative to the animal) to facilitate continuous ventral plane videography (up to 150 frames per second) of activity. Gait indices were analyzed with the complementary digital imaging software (Digigait™, Mouse Specifics, Inc., Boston, Mass., USA) as per manufacturer's instructions. Briefly, the software converts “paw prints” into a digital signal and generates a temporal record of paw placement and breaks down the digital file into three main parameters: stride duration, swing duration, and stance duration. The stance duration is the period during which the paw of a limb is in contact with the belt surface. The software further subdivides the stance duration into two components: braking duration (the increase in paw contact area over a discrete time interval) and propulsion duration (the decrease in paw contact area over a discrete time interval). The swing duration is the period of time that a paw is not in contact with the belt surface. In addition to these factors, over a dozen additional characteristics, including stance factor, step-sequence pattern, propulsion, and cadence are generated to provide a spreadsheet format report of twenty-five gait indices.

The source of these data is patent US9573972B2, “Nurotoxic sterol glycosides” (priority 2008, dated 2017).

Structures are written as SMILES. Entries after “also recorded” stand apart in the source; their conditions may differ.

Take `CC[C@H](/C=C/[C@@H](C)[C@H]1CC[C@H]2[C@@H]3CC=C4C[C@@H](O[C@@H]5O[C@H](CO)[C@@H](O)[C@H](O)[C@H]5O)CC[C@]4(C)[C@H]3CC[C@]12C)C(C)C` [SG, Stigmasterol β-D-Glucopyranoside]: in series [1] (SG-fed animals at 52 weeks), the “Apoptosis of phosphorylated-tau containing cells” value is reported as “majority of the phosphorylated-tau containing cells were actively undergoing apoptosis”. The Phosphorylated tau aggregates entry in series [1] (Time-point 1 (35 wk)) was “−”. Moreover, in series [1] (Time-point 2 (52 wk)), the Phosphorylated tau aggregates result was “+” and the “Phosphorylated tau aggregates, incidence in SG-fed group” value is given as 2/8. In addition, the “Accumulation of phosphorylated tau” value in series [1] (ventral horn of lumbar spinal cord, SG-fed mice, none in non-treated mice) is on record as “induced accumulation of phosphorylated tau; also recorded: Phosphorylated Tau aggregates were observed”. Also, in the series with male CD-1 mice (Time-point 1 (35 wk)), the Forelimb braking entry is listed as “Forelimb braking (ns)”, the Forelimb propulsion result was “Forelimb propulsion (ns)”, the Forelimb stance width entry was “Forelimb stance width (ns)” and the Forelimb stride length entry is given as “Forelimb stride length (ns)”. Also, in the series with male CD-1 mice (Time-point 1 (35 wk)), the Hind limb braking entry is recorded as “Hind limb braking (ns)”, the Hind limb propulsion entry was “Hind limb propulsion (ns)”, the “Hind limb stance width” value was “Hind limb stance width (ns)” and the “Hind limb stride frequency” value is “Hind limb stride frequency (ns)”. Further, in the series with male CD-1 mice (Time-point 1 (35 wk)), the “Hind limb stride length” value is on record as “Hind limb stride length (ns)”. In addition, in the series with male CD-1 mice (Time-point 2 (52 wk)), the Forelimb braking result is given as “Forelimb braking* (*p < 0.05)”, the Forelimb propulsion entry was “Forelimb propulsion* (*p < 0.05)”, the Hind limb braking entry is on record as “Hind limb braking* (*p < 0.05)” and the Hind limb propulsion result is “Hind limb propulsion* (*p < 0.05)”. For the same compound, the “Hind limb stride frequency” value with male CD-1 mice (Time-point 2 (52 wk)) is on record as “Hind limb stride frequency* (*p < 0.05)”.
